Test results taken from ChEMBL document CHEMBL1151324, “Cytotoxic geranyl stilbenes from Macaranga schweinfurthii” (J Nat Prod, 1998).
Converted amounts (≈) assume the structure as drawn.

How the values were obtained:
SF-295 [1] = test: Cytotoxicity against human SF295 cells after 1 hr; format: functional, cell-based; conditions: SF-295, 1 h
HOP-92 = test: Cytotoxicity against human HOP92 cells; format: functional; conditions: for TGI: read-out: pTGI (converted)
SR = test: Cytotoxicity against human SR cells; format: functional; conditions: for TGI: read-out: pTGI (converted)
OVCAR-4 = test: Cytotoxicity against human OVCAR4 cells; format: functional; conditions: for TGI: read-out: pTGI (converted)
SNB-75 = test: Cytotoxicity against human SNB75 cells; format: functional; conditions: for TGI: read-out: pTGI (converted)
MCF7 [2] = test: Cytotoxicity against human MCF7 cells; format: functional; conditions: for CC50: read-out: pLC50 (the source's name) (converted); for TGI: read-out: pTGI (converted)
K562 = test: Cytotoxicity against human K562 cells; format: functional; conditions: for TGI: read-out: pTGI (converted)
MCF7 [3] = test: Cytotoxicity against human doxorubicin-resistant MCF7 cells; format: functional; conditions: for CC50: read-out: pLC50 (the source's name) (converted); for TGI: read-out: pTGI (converted)
HL-60 = test: Cytotoxicity against human HL60 cells; format: functional; conditions: for TGI: read-out: pTGI (converted)
SF-295 [4] = test: Cytotoxicity against human SF295 cells; format: functional
OVCAR-5 = test: Cytotoxicity against human OVCAR5 cells; format: functional; conditions: for TGI: read-out: pTGI (converted)
A549 = test: Cytotoxicity against human A549 cells after 48 hrs; format: functional, cell-based; conditions: A549, 48 h
HCC 2998 = test: Cytotoxicity against human HCC2998 cells; format: functional; conditions: for TGI: read-out: pTGI (converted)
CAKI-1 = test: Cytotoxicity against human Caki1 cells; format: functional; conditions: for TGI: read-out: pTGI (converted)
UO-31 = test: Cytotoxicity against human UO31 cells; format: functional; conditions: for TGI: read-out: pTGI (converted)
U-251 = test: Cytotoxicity against human U251 cells; format: functional; conditions: for TGI: read-out: pTGI (converted)
MOLT-4 = test: Cytotoxicity against human MOLT4 cells; format: functional; conditions: for TGI: read-out: pTGI (converted)
SK-OV-3 = test: Cytotoxicity against human SKOV3 cells; format: functional; conditions: for TGI: read-out: pTGI (converted)
[5] = Cytotoxicity against human 786-O cells; format: functional; conditions: for GI50 / LC50: 786-0; for TGI: 786-0, read-out: pTGI (converted)
SK-MEL-2 = test: Cytotoxicity against human SK-MEL-2 cells; format: functional; conditions: for TGI: read-out: pTGI (converted)

CC(C)=CCC/C(C)=C/Cc1c(O)cc(/C=C/c2cc(O)c3c(c2)C[C@@H]2C(C)(C)[C@H](O)[C@H](O)C[C@@]2(C)O3)cc1O [SCHWEINFURTHIN A]
IC50 (SF-295 [1]): 47 µg/mL (≈ 85.7 µM) | GI50 (HOP-92): 2.57 µM | LC50 (HOP-92): 46.8 µM | TGI (HOP-92): 15.1 µM | GI50 (SR): 0.0708 µM | LC50 (SR): 74.1 µM | TGI (SR): 18.2 µM | GI50 (OVCAR-4): 4.27 µM | LC50 (OVCAR-4): 81.3 µM | TGI (OVCAR-4): 24 µM | GI50 (SNB-75): 0.0151 µM | LC50 (SNB-75): 50.1 µM | TGI (SNB-75): 0.38 µM | GI50 (MCF7 [2]): 0.0269 µM | CC50 (MCF7 [2]): 85.1 µM | TGI (MCF7 [2]): 8.13 µM | GI50 (K562): 0.0646 µM | LC50 (K562): 72.4 µM | TGI (K562): 14.1 µM | GI50 (MCF7 [3]): 3.8 µM | CC50 (MCF7 [3]): 41.7 µM | TGI (MCF7 [3]): 12.9 µM | GI50 (HL-60): 0.0158 µM | LC50 (HL-60): 38.9 µM | TGI (HL-60): 0.129 µM | LC50 (SF-295 [4]): 17 µM | GI50 (SF-295 [4]; read-out: GI50): 0.011 µM | TGI (SF-295 [4]; read-out: TGI): 0.052 µM | GI50 (SF-295 [4]; read-out: pGI50 (converted)): 0.011 µM | TGI (SF-295 [4]; read-out: pTGI (converted)): 0.0525 µM | GI50 (OVCAR-5): 6.46 µM | LC50 (concentration killing 50% of cells) (OVCAR-5): 45.7 µM | TGI (OVCAR-5): 20 µM | IC50 (A549): 3.7 µg/mL (≈ 6.74 µM) | GI50 (HCC 2998): 0.501 µM | LC50 (HCC 2998): 33.1 µM | TGI (HCC 2998): 9.77 µM | GI50 (CAKI-1): 0.129 µM | LC50 (CAKI-1): 56.2 µM | TGI (CAKI-1): 19.1 µM | GI50 (UO-31): 0.01 µM | LC50 (UO-31): 3.63 µM | TGI (UO-31): 0.209 µM | GI50 (U-251): 0.0251 µM | LC50 (U-251): 49 µM | TGI (U-251): 22.9 µM | GI50 (MOLT-4): 0.0151 µM | LC50 (MOLT-4): 57.5 µM | TGI (MOLT-4): 1.29 µM | GI50 (SK-OV-3): 2.69 µM | LC50 (SK-OV-3): 39.8 µM | TGI (SK-OV-3): 15.8 µM | GI50 [5]: 0.01 µM | LC50 [5]: 19.1 µM | TGI [5]: 3.02 µM | GI50 (SK-MEL-2): 1.7 µM | LC50 (SK-MEL-2): 42.7 µM | TGI (SK-MEL-2): 12.9 µM

COc1cc(/C=C/c2cc(O)c(C/C=C(\C)CCC=C(C)C)c(O)c2)cc2c1O[C@]1(C)C[C@@H](O)[C@@H](O)C(C)(C)[C@H]1C2 [SCHWEINFURTHIN B]
IC50 (SF-295 [1]): > 100 µg/mL | GI50 (HOP-92): 0.933 µM | LC50 (HOP-92): 41.7 µM | TGI (HOP-92): 12.9 µM | GI50 (SR): 0.257 µM | LC50 (SR): 58.9 µM | TGI (SR): 12 µM | GI50 (OVCAR-4): 12 µM | LC50 (OVCAR-4): 77.6 µM | TGI (OVCAR-4): 50.1 µM | GI50 (SNB-75): 0.0251 µM | LC50 (SNB-75): 60.3 µM | TGI (SNB-75): 1.82 µM | GI50 (MCF7 [2]): 0.2 µM | CC50 (MCF7 [2]): 38.9 µM | TGI (MCF7 [2]): 6.03 µM | GI50 (K562): 0.347 µM | LC50 (K562): 36.3 µM | TGI (K562): 6.17 µM | GI50 (MCF7 [3]): 6.92 µM | CC50 (MCF7 [3]): 75.9 µM | TGI (MCF7 [3]): 30.2 µM | GI50 (HL-60): 0.0372 µM | LC50 (HL-60): > 100 µM | TGI (HL-60): 1.29 µM | LC50 (SF-295 [4]): 3.89 µM | GI50 (SF-295 [4]; read-out: pGI50 (converted)): 0.024 µM | TGI (SF-295 [4]; read-out: pTGI (converted)): 0.288 µM | GI50 (OVCAR-5): 7.08 µM | LC50 (concentration killing 50% of cells) (OVCAR-5): 44.7 µM | TGI (OVCAR-5): 19.1 µM | IC50 (A549): 7.1 µg/mL (≈ 12.6 µM) | GI50 (HCC 2998): 3.63 µM | LC50 (HCC 2998): 34.7 µM | TGI (HCC 2998): 11 µM | GI50 (CAKI-1): 1.91 µM | LC50 (CAKI-1): 75.9 µM | TGI (CAKI-1): 28.8 µM | GI50 (UO-31): 0.0759 µM | LC50 (UO-31): 5.25 µM | TGI (UO-31): 0.912 µM | GI50 (U-251): 0.2 µM | LC50 (U-251): 49 µM | TGI (U-251): 24 µM | GI50 (MOLT-4): 0.0479 µM | LC50 (MOLT-4): 11 µM | TGI (MOLT-4): 5.25 µM | GI50 (SK-OV-3): 2.57 µM | LC50 (SK-OV-3): 40.7 µM | TGI (SK-OV-3): 15.8 µM | GI50 [5]: 0.0219 µM | LC50 [5]: 14.1 µM | TGI [5]: 1.91 µM | GI50 (SK-MEL-2): 1.82 µM | LC50 (SK-MEL-2): 46.8 µM | TGI (SK-MEL-2): 17 µM
